Test results published in patent US10583120B2, “Composition having a muscle-relaxant and anti-inflammatory activity” (Kolinpharma S.p.A., priority 2014, dated 2020).

Key:
[1] = system: TNFα release from differentiated THP-1 monocytes; test: ELISA test (Test 1), release of TNFα into culture medium; format: cell-based, human; details: positive control at 100 μM, LPS 1 μg/ml for 2 hours
THP-1 cells = details: positive controls at 100 μM
Text: The absorbance measured correlates directly with the number of live cells.

[2] = system: IL-1β release from differentiated THP-1 monocytes; test: ELISA test (Test 1), release of IL-1β into culture medium; format: cell-based, human; details: positive control at 100 μM, LPS 1 μg/ml for 2 hours
[3] = system: human skeletal muscle myotubes; test: Evaluation of the muscle-relaxant effect (Test 2), contractile activity of myotubes stimulated with carbacol; format: cell-based; details: myotubes with carbacol 3 mM, FIG. 5A; at least partly restored during washing
Procedure: The myoblasts were differentiated into myotubes in differentiation medium (DMEM: F12, with the addition of 2% of horse serum). The differentiated myotubes were used for the experiments from the fourth to the seventh day of maintenance in differentiation medium.
For the evaluation of the muscle-relaxant effect of MILESAX, human myoblasts were seeded onto microscope slides and, once they had reached at least about 70% confluence, they were maintained in differentiation medium for 4-7 days before being used for the experiments. The contractile activity of the myotubes was recorded with a TCS SP5 confocal microscope (Leica Microsystems) in transmitted-light mode with the 40× objective lens (HCX PL APO, 1.25 NA, Leica Microsystems) using the incubator associated with the microscope to maintain the cells under a controlled atmosphere (37° C., 5% CO2). […]
Not all the myotubes in the culture were capable of contracting, and similarly it was never possible to observe spontaneous contractions only in differentiation medium. […] The contractile activity of the identified active cell(s) was recorded with a confocal microscope in transmitted light, with an image acquired every 151 ms. […]

Structure (SMILES) | release of TNFα relative to vehicle/control [1] | toxic effect on the cells (MTT test) (THP-1 cells) | release of IL-1β [2] | frequency of contractions per unit time (contractions per minute) [3]
O=C(O)Cc1ccccc1Nc1c(Cl)cccc1Cl [diclofenac] | significantly reduced the release of TNFα | no toxic effect on the cells | effective in reducing the release of IL-1β | 
CC(C)Cc1ccc(C(C)C(=O)O)cc1 (stereo not drawn) [ibuprofen] | did not lead to any reduction in the release of TNFα |  | no effect on the release of IL-1β | 
COc1c(O[C@@H]2O[C@H](CO)[C@@H](O)[C@H](O)[C@H]2O)cc2c(c1OC)-c1ccc(SC)c(=O)cc1[C@@H](NC(C)=O)CC2 [Muscoril, thiocolchicoside] |  |  |  | clear tendency
